Source: patent US20130184222A1, “[…] ACTIVE COMPOSITIONS AND THEIR METHODS OF USE” (AGIOS PHARMACEUTICALS, INC, priority 2010, published 2013)

How the values were obtained:
IDH1 R132H = IDH1 R132H (Homo sapiens, UniProt O75874, R132H); assay: In vitro assay for IDH1 R132H inhibitors (NADPH/aKG, resazurin detection); format: biochemical; conditions: Table 4B; 0.2 μg/ml IDH1 R132H, 50 minutes at room temperature; read-out: IC50, IDH1 R132H Inhibition
Outline: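 Buffer: 150 mM NaCl, 10 mM MgCl2, 20 mM Tris pH 7.5, 0.03% BSA. Compound was added to substrate mix (8 uM NADPH, 2 mM aKG), then enzyme mix (0.2 μg/ml IDH1 R132H), and incubated 50 min at room temperature. Remaining NADPH was read by resazurin (30 μM in detection mix) to resorufin fluorescence after 5 min, Ex544/Em590.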

HT1080 cells = assay: Cellular assay: inhibition of 2-HG production in HT1080 cells (LC-MS, 48 hours); format: cell-based; conditions: Homo sapiens, HT-1080, 2-HG in media by LC-MS
Outline: (§1)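 HT1080 or U87MG cells (5000/well, DMEM + 10% FBS) seeded overnight, then exposed to compound (0.2% DMSO final) for 48 h; medium 2-HG measured by LC-MS. Viability read by CellTiter-Glo luminescence at 72 h.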

U87MG cells = assay: Cellular assay: inhibition of 2-HG production in U87MG cells (LC-MS, 48 hours); format: cell-based; conditions: Homo sapiens, U-87 MG, 2-HG in media by LC-MS
Outline: as §1

Sequence of IDH1 R132H (O75874 whole entry R132H): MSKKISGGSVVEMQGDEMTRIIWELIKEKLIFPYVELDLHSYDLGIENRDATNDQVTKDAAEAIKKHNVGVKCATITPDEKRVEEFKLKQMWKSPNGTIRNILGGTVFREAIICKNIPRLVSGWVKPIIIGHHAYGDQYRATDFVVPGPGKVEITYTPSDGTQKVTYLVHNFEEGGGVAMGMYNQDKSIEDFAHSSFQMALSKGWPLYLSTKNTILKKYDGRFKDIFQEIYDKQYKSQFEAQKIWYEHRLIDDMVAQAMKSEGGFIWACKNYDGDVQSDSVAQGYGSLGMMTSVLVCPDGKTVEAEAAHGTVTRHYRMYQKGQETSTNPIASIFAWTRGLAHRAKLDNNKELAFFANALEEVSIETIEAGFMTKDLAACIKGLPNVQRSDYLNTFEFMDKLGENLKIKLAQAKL

Row | Compound | IC50 (IDH1 R132H) | IC50 (HT1080 cells) | IC50 (U87MG cells)
1 | Cc1ccccc1C(C(=O)NC1CCCCC1)N(C(=O)CNCc1cscn1)c1cccc(F)c1 (stereo not drawn) [Compound 267] | 100 to 1000 nM | 250 to 1000 nM | 1000 to 5000 nM
2 | Cc1ccccc1C(C(=O)NC1CCCCC1)N(C(=O)Cn1cccn1)c1cccc(F)c1 (stereo not drawn) [Compound 317] | 100 to 1000 nM | 250 to 1000 nM | 1000 to 5000 nM
3 | Cc1ccccc1C(C(=O)NC1CCCCC1)N(C(=O)COCc1cccnc1)c1cccc(F)c1 (stereo not drawn) [Compound 233] | 100 to 1000 nM | 250 to 1000 nM | 1000 to 5000 nM
4 | Cc1ccccc1C(C(=O)NC1CC(F)(F)C1)N(C(=O)CNc1cccnc1F)c1cccc(F)c1 (stereo not drawn) [Compound 381] | ≤ 100 nM | ≤ 250 nM | ≤ 250 nM
5 | Cc1ccccc1C(C(=O)NC1CCCCC1)N(C(=O)CNCc1cnccn1)c1cccc(F)c1 (stereo not drawn) [Compound 254] | 100 to 1000 nM | 1000 to 5000 nM | 1000 to 5000 nM
6 | Cc1ccccc1C(C(=O)NC1CCCCC1)N(C(=O)C(C)c1c[nH]c2ccccc12)c1cccc(F)c1 (stereo not drawn) [Compound 283] | 100 to 1000 nM | 250 to 1000 nM | 250 to 1000 nM
7 | Cc1ccccc1C(C(=O)NC1CCCCC1)N(C(=O)Cn1ccc(F)cc1=N)c1cccc(F)c1 (stereo not drawn) [Compound 240] | ≤ 100 nM | 250 to 1000 nM | 1000 to 5000 nM
8 | COC(=O)N1CCCC[C@@H]1C(=O)N(c1cccc(F)c1)[C@H](C(=O)NC1CCCCC1)c1ccccc1C [Compound 335] | 100 to 1000 nM | 250 to 1000 nM | 1000 to 5000 nM
9 | Cc1ccccc1C(C(=O)NC1CCCCC1)N(C(=O)CNc1ccc(F)cn1)c1cccc(F)c1 (stereo not drawn) [Compound 253] | ≤ 100 nM | ≤ 250 nM | 250 to 1000 nM
10 | Cc1ccccc1C(C(=O)NC1CCCCC1)N(C(=O)Cc1cn(C)c2ccccc12)c1ccn(C)n1 (stereo not drawn) [Compound 244] | 100 to 1000 nM | 250 to 1000 nM | 1000 to 5000 nM
11 | Cc1ccccc1C(C(=O)NC1CCCCC1)N(Cc1cccs1)C(=O)Cn1cnc2ccccc21 (stereo not drawn) [Compound 167] | 100 to 1000 nM | 250 to 1000 nM | 250 to 1000 nM
12 | Cc1ccccc1C(C(=O)NC1CCCCC1)N(C(=O)Cn1cnc2cnccc21)c1cccc(F)c1 (stereo not drawn) [Compound 266] | 100 to 1000 nM | > 5000 nM | > 5000 nM
13 | Cc1cnccc1NC(=O)N(Cc1cccs1)C(C(=O)NC1CCCCC1)c1ccccc1C (stereo not drawn) [Compound 389] | 100 to 1000 nM | 1000 to 5000 nM | 1000 to 5000 nM
14 | CCC(=O)N1CCCC[C@@H]1C(=O)N(c1cccc(F)c1)[C@H](C(=O)NC1CCCCC1)c1ccccc1C [Compound 347] | 100 to 1000 nM | 1000 to 5000 nM | 1000 to 5000 nM
15 | COC(=O)NCC(=O)N(c1ccccc1F)C(C(=O)NC1CCCCC1)c1ccccc1C (stereo not drawn) [Compound 357] | 100 to 1000 nM | 250 to 1000 nM | 250 to 1000 nM
16 | COc1cccc(-c2cccc(N(C(=O)Cn3ccnc3C)C(C(=O)NC3CCCCC3)c3ccccc3C)c2)c1 (stereo not drawn) [Compound 299] | 100 to 1000 nM | 1000 to 5000 nM | 250 to 1000 nM
17 | Cc1ccccc1C(C(=O)NC1CCCCC1)N(C(=O)C(=O)NCc1ccncc1)c1cccc(F)c1 (stereo not drawn) [Compound 270] | 100 to 1000 nM | 1000 to 5000 nM | 1000 to 5000 nM
18 | O=C(NC1CCCCC1)C(c1ccccc1F)N(C(=O)Cn1ccc2ncccc21)c1cccc(F)c1 (stereo not drawn) [Compound 324] | 100 to 1000 nM | 1000 to 5000 nM | 250 to 1000 nM
19 | Cc1nccn1CC(=O)N(c1cccc(F)c1)[C@H](C(=O)NC1CCCCC1)c1ccccc1 [Compound 239] | 100 to 1000 nM | 250 to 1000 nM | ≤ 250 nM
20 | Cc1ccccc1C(C(=O)NC1CCCCC1)N(Cc1cccs1)C(=O)Cn1c(C)nc2ccccc21 (stereo not drawn) [Compound 175] | 100 to 1000 nM | 250 to 1000 nM | 1000 to 5000 nM
21 | Cc1ccccc1C(C(=O)NC1CCCCC1)N(C(=O)Cc1c[nH]c2ccccc12)c1ccn(C)n1 (stereo not drawn) [Compound 238] | 100 to 1000 nM | 250 to 1000 nM | 1000 to 5000 nM
22 | COC(=O)N1CCC[C@H]1C(=O)N(c1cccc(F)c1)[C@H](C(=O)NC1CCCCC1)c1ccccc1C [Compound 356] | ≤ 100 nM | ≤ 250 nM | ≤ 250 nM
23 | Cc1ccccc1C(C(=O)NC1CCCCC1)N(C(=O)CNc1ccc(C(F)(F)F)nc1)c1cccc(F)c1 (stereo not drawn) [Compound 279] | 100 to 1000 nM | 1000 to 5000 nM | > 5000 nM
24 | Cc1ccccc1C(C(=O)NC1CCCCC1)N(C(=O)COCc1cnccn1)c1cccc(F)c1 (stereo not drawn) [Compound 282] | 100 to 1000 nM | 250 to 1000 nM | > 5000 nM
